Legend:
XO [1] = molecular target: T1, XO (Bos taurus, UniProt P80457); test: XO activity by uric acid production at 305 nm; assay type: biochemical; conditions: 1 mM, preincubated with HX/XO
Description: (§1) The activity of XO was monitored in the absence and presence of 1 mM DEA/NO by two different assays. Superoxide-induced reduction of ferricytochrome c to ferrocytochrome c was monitored spectrophotometrically at 550 nm (Fridovich, Handbook of Method for Oxygen Radical Research, pages 213-215 (1985)). The reaction was carried out in a 1 ml volume in aerated phosphate buffer (pH 7.8, 50 mM) containing 50 μM DETAPAC. HX was maintained at 2.5 mM and ferricytochrome c at 20 μM. The reactions were initiated with the addition of XO (final concentration of 0.2 units/ml). The activity of XO in the absence and presence of 1 mM DEA/NO was directly monitored by measuring the production of uric acid spectrophotometrically at 305 nm for 10 min under the same conditions but in the absence of ferricytochrome c. All enzymatic assays and chemical reactions were done at 37° C.

[2] = tested on: Chinese hamster V79 lung fibroblasts; test: V79 clonogenic survival, hydrogen peroxide cytotoxicity; assay type: cell-based; conditions: 1 mM; for effect on hydrogen peroxide cytotoxicity: FIG. 2B; for protection from hydrogen peroxide cytotoxicity: decomposition products of DEA/NO, FIG. 1B
Description: Colonies containing more than 50 cells were scored.

[3] = tested on: Chinese hamster V79 lung fibroblasts; test: V79 clonogenic survival, hypoxanthine/xanthine oxidase (HX/XO) cytotoxicity; conditions: decomposition products of DEA/NO, 1 mM
Description: Chinese hamster V79 lung fibroblasts were cultured in F12 medium supplemented with 10% fetal calf serum and antibiotics. Cell survival was assessed by clonogenic assay with 85-95% plating efficiency. Stock cultures of exponentially growing cells were trypsinized, rinsed, and plated (7×10^5 cells/dish) into a number of 100 cm^2 petri dishes and incubated 16 hr at 37° C. prior to experimental protocols.
It has been shown that exposure of V79 cells to hydrogen peroxide results in dose-dependent cytotoxicity (Mitchell et al., supra).
HX and XO were purchased from Boehringer Co. (Indianapolis, Ind.). Nitrite, diethylamine, sulfinamide, diethylenetriaminepentaacetic acid (DETAPAC) and N-(1-naphthyl)ethylenediaminedihydrogenchloride (NEDD) were purchased from Aldrich (Milwaukee, Wis.). Cytosine-β-D-arabinofuranoside and ferricytochrome c were purchased from Sigma (St. Louis, Mo.). DEA/NO and SPER/NO were synthesized as previously described (Maragos et al., (1991), supra).
Exponentially growing cultures of Chinese hamster V79 fibroblasts were exposed to either HX/XO (final concentration of HX was 0.5 mM; 0.08 units/ml XO were used) for various amounts of time (FIG. 1A) or to various concentrations of hydrogen peroxide for one hour (FIG. 1B). […] Additionally, 1 mM DEA/NO was added to medium in the absence of cells, incubated at 37° C. for 1 hr or 16 hrs, and then added just prior to the addition of hydrogen peroxide to evaluate the effects of DEA/NO which had released NO. After treatment, cell monolayers were rinsed twice with phosphate-buffered saline (PBS), trypsinized, counted and plated in triplicate for macroscopic colony formation. Each dose determination was plated in triplicate and experiments were repeated a minimum of two times. Plates were incubated for 7 days, after which colonies were fixed with methanol/acetic acid (3:1), stained with crystal violet, and counted. Colonies containing more than 50 cells were scored.

XO [4] = molecular target: T1, XO; test: XO activity by superoxide-induced reduction of ferricytochrome c; assay type: biochemical; conditions: 1 mM, preincubated with HX/XO
Description: as §1

rat mesenteric venules = test: Venular diameter, RBC velocity and wall shear rate after ischemia reperfusion; assay type: in vivo; conditions: 100 μM in superfusate; for RBC velocity / Venular diameter / Wall Shear Rate: 30 min after reperfusion
Description: (§2) Male Sprague-Dawley rats weighing 200-250 g apiece were maintained on a purified laboratory diet and fasted for 24 hours prior to each experiment. The animals were initially anesthetized with pentobarbital (65 mg/kg body weight) and then a tracheotomy was performed to facilitate breathing during subsequent experimentation. The right carotid artery was cannulated and system arterial pressure was measured with a Statham P23A pressure transducer (Oxnard, Calif.) connected to the carotid artery cannula. Systemic blood pressure and heart rate were continuously recorder with a Grass physiologic recorded (Grass Instruments).
(§3) Rats were placed in a supine position on an adjustable plexiglass microscope stage and the mesentery was prepared for microscopic observation as described previously (Asako et al., Gastroenterology, 103, 146-152 (1992); Kurose et al., Circ. Res., in press (1993)). Briefly, the mesentery was draped over a non-fluorescent coverslip that allowed for observation of a 2 cm^2 segment of tissue. The exposed bowel wall was covered with Saran Wrap (Dow Chemical Co.) and the mesentery was superfused with bicarbonate-buffered saline (pH 7.4, 37° C.) that was bubbled with a mixture of 5% CO2 and […].
(§4) An inverted microscope (TMD-25, Diaphoto, Nikon, Tokyo, Japan) with a 40x objective lens (Fluor, Nikon) was used to observe the mesenteric microcirculation. The mesentery was transilluminated with a 12 V-100 W direct current-stabilized light source. A video camera (VK-C150, Hitachi, Ibaragi, Japan) mounted on the microscope projected the image onto a color monitor (PVM-2030, Sony, Tokyo, Japan) and the images were recorded using a videocassette record (NV8950, Panasonic, Tokyo, Japan). A video time-date generator (WJ810, Panasonic) projected the time, date and stopwatch function onto the monitor.
(§5) Single unbranched venules with diameters ranging between 25 and 35 μm and length greater than 150 μm were selected for study. Venular diameter (DV) was measured either on- or off-line using a video caliper (Microcirculation Research Institute, Texas A&M University, College Station, Tex.). Red blood cell centerline velocity (VRBC) was measured in venules using an optical Dopper velocimeter (Microcirculation Research Institute, Texas A&M University, College Station, Tex.). The velocimeter was calibrated against a rotating glass disk coated with red blood cells. Venular blood flow was calculated from the product of mean red blood cell velocity (Vmean =centerline velocity/1.6; Davis, Microvasc. Res., 34, 223-230 (1987)) and microvascular cross-sectional area, assuming cylindrical geometry. Wall shear rate (γ) was calculated based on the Newtonian definition γ=8(Vmean /D).
After all parameters measured on-line were in a steady state, images from the mesenteric preparation were recorded on videotape for 10 min. […] The mesentery was made ischemic for zero (sham ischemia) or 20 min. After the ischemic period, the ligation was gently removed. In some experiments, either sodium nitroprusside (SNP, 100 μM, Sigma Chemical), spermine-NO (SpNO, 100 μM), SIN-1 (100 μM), spermine (SP, 100 μM, Sigma Chemical), or NG-nitro-L-arginine methyl ester (L-NAME, 100 μM, Sigma Chemical) was added to the superfusate and the same protocol was employed. Spermine-NO and SIN-1, which are NO donors, were obtained from the National Institutes of Health, Bethesda, Md. […]

mesenteric venules = test: Albumin leakage across mesenteric venules after ischemia reperfusion; assay type: in vivo, rat; conditions: 100 μM, FIG. 4C; for effect on ischemia reperfusion induced albumin leakage: in words
Description: as §2, §3, §4
as §5, with “The velocimeter was calibrated against a rotating glass disk coated with red blood cells.” left out
After all parameters measured on-line were in a steady state, images from the mesenteric preparation were recorded on videotape for 10 min. […]

mast cells = test: Degranulation of microvascular mast cells after ischemia reperfusion; assay type: in vivo, rat; conditions: 20 min ischemia, 30 min reperfusion; 100 μM; FIG. 7
Description: as §2, §3
(§6) An inverted microscope (TMD-25, Diaphoto, Nikon, Tokyo, Japan) with a 40x objective lens (Fluor, Nikon) was used to observe the mesenteric microcirculation. […] A video camera (VK-C150, Hitachi, Ibaragi, Japan) mounted on the microscope projected the image onto a color monitor (PVM-2030, Sony, Tokyo, Japan) and the images were recorded using a videocassette record (NV8950, Panasonic, Tokyo, Japan). […]
as §5, with “The velocimeter was calibrated against a rotating glass disk coated with red blood cells.” left out
The number of adherent leukocytes was determined off-line during playback of videotape images. […] Adherent cells were expressed as the number per 100 μm length of venule. The number of emigrated leukocytes was also determined off-line during playback of videotape images. […] Leukocyte emigration was expressed as the number per field of view surrounding the venule. […]

leukocytes = test: Leukocyte adherence and emigration after ischemia reperfusion (mesenteric venules); assay type: in vivo, rat; conditions: 20 min ischemia, 100 μM; for change in leukocyte adherence: FIG. 4A; for effect on emigrated leukocytes: 30 min reperfusion, in words
Description: as §2, §3, §4, §5
The number of adherent leukocytes was determined off-line during playback of videotape images. A leukocyte was considered to be adherent to venular endothelium if it remained stationary for a period equal to or greater than 30 seconds (Granger et al., Am. J. Physiol., 257, G683-G688 (1989)). Adherent cells were expressed as the number per 100 μm length of venule. The number of emigrated leukocytes was also determined off-line during playback of videotape images. Any interstitial leukocytes present in the mesentery at the onset of the experiment were subtracted from the total number of leukocytes that accumulated during the course of the experiment. Leukocyte emigration was expressed as the number per field of view surrounding the venule. Platelet-leukocyte aggregates, which were visible within postcapillary venules, were quantitated and expressed as the number of aggregates crossing a fixed point within the venule over a 5 min period. Mast cells in the microvascular beds of the rat mesenteries were visualized by using 0.1% toluidine blue. The number of normal and degranulated mast cells was determined and the percentage of degranulated mast cells was calculated.

[5] = tested on: Chinese hamster V79 lung fibroblasts; conditions: Mitchell et al.; cited from earlier work
microvasculature = test: Capillary pressure and vascular resistance in cat small intestine transplant; assay type: in vivo, cats; conditions: FIG. 13
[6] = tested on: platelet-leukocyte aggregates; test: Platelet-leukocyte aggregates after ischemia reperfusion; assay type: in vivo, rat; conditions: 20 min ischemia, 30 min reperfusion; 100 μM; FIG. 6
Description: as §2, with “Instruments). […]” for “Instruments).”
as §6
Single unbranched venules with diameters ranging between 25 and 35 μm and length greater than 150 μm were selected for study. Venular diameter (DV) was measured either on- or off-line using a video caliper (Microcirculation Research Institute, Texas A&M University, College Station, Tex.). […] Wall shear rate (γ) was calculated based on the Newtonian definition γ=8(Vmean /D). […]

intestinal mucosa = test: Intestinal blood to lumen 51Cr-EDTA clearance (mucosal permeability) in cat small intestine transplant; assay type: in vivo, cats
small intestine = test: Water absorption in cat small intestine transplant; assay type: in vivo, cats; conditions: at 90 and 120 min; 0.5 mmol; FIG. 10

T1 sequence (P80457 whole entry): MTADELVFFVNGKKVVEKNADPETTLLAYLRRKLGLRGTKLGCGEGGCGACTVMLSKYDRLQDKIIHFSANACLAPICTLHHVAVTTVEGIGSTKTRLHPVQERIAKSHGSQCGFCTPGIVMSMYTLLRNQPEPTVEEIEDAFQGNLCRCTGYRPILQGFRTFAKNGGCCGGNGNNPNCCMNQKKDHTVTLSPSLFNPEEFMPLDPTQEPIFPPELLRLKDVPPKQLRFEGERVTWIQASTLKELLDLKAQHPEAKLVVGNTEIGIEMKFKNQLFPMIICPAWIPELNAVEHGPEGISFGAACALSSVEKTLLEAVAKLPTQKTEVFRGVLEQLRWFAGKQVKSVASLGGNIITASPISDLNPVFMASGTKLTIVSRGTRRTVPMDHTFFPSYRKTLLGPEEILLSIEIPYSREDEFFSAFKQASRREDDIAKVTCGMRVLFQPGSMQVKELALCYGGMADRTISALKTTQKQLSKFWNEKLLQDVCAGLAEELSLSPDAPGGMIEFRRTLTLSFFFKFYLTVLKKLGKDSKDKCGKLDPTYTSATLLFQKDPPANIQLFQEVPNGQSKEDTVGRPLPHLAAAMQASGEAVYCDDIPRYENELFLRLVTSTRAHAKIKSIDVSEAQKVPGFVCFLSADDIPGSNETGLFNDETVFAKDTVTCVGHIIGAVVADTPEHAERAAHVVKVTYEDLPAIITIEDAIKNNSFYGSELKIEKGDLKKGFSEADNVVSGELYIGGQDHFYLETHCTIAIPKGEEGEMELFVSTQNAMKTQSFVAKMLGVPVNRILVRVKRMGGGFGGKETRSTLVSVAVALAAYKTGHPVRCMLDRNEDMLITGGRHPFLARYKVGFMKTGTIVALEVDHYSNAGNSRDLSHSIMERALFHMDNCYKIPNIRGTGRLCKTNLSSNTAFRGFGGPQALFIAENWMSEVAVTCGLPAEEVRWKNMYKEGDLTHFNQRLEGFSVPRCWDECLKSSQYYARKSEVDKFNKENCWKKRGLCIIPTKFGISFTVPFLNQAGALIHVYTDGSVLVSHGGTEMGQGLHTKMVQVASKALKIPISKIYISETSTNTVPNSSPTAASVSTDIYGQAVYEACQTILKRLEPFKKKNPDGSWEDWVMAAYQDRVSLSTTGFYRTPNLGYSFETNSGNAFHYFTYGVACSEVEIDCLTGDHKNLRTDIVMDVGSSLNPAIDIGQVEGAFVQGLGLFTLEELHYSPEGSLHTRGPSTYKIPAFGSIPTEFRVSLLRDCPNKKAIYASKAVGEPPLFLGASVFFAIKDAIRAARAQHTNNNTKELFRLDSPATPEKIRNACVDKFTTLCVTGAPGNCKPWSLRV

## CCNCC [diethylamine]
XO [1]
  inhibition of XO activity, uric acid production: did not inhibit the activity of XO
[2]
  effect on hydrogen peroxide cytotoxicity: had no effect on hydrogen peroxide cytotoxicity
  protection from hydrogen peroxide cytotoxicity: did not protect
[3]
  protection from HX/XO-induced cytotoxicity: did not protect
XO [4]
  inhibition of XO activity, production of superoxide (cytochrome c reduction): did not inhibit the activity of XO

## NCCCNCCCCNCCCN [SP, spermine]
Rat mesenteric venules
  RBC velocity: 2.32 ± 0.19 mm/sec
  Venular diameter: 29.8 ± 1.4 μm
  Wall Shear Rate: 391 ± 28 L/s
Mesenteric venules
  effect on ischemia reperfusion induced albumin leakage: no effect
Mast cells
  degranulation of microvascular mast cells: had no effect
leukocytes; 10 and 30 min reperfusion
  change in leukocyte adherence: no significant changes
leukocytes; FIG. 4B
  effect on emigrated leukocytes: no effect

## COC(=O)[C@@H](N)CCCNC(=N)N[N+](=O)[O-] [L-NAME, NG-nitro-L-arginine methyl ester]
Rat mesenteric venules
  RBC velocity: 1.84 ± 0.09 mm/sec
  Venular diameter: 29.2 ± 1.5 μm
  Wall Shear Rate: 316 ± 10 L/s
Mesenteric venules
  effect on ischemia reperfusion induced albumin leakage: no effect
Mast cells
  degranulation of microvascular mast cells: had no effect
leukocytes; 10 and 30 min reperfusion
  change in leukocyte adherence: no significant changes
leukocytes; FIG. 4B
  effect on emigrated leukocytes: no effect

## O=NO [nitrite]
XO [1]
  inhibition of XO activity, uric acid production: did not inhibit the activity of XO
[2]
  effect on hydrogen peroxide cytotoxicity: potentiated hydrogen peroxide cytotoxicity
  protection from hydrogen peroxide cytotoxicity: did not protect
[3]
  protection from HX/XO-induced cytotoxicity: did not protect
XO [4]
  inhibition of XO activity, production of superoxide (cytochrome c reduction): did not inhibit the activity of XO

## superoxide dismutase
[5]
  HX/XO induced cytotoxicity with added enzyme: not treated

## [NH-]c1c[n+](N2CCOCC2)no1 [SIN-1]
Rat mesenteric venules; in words
  reversal of decrease in RBC velocity after reperfusion: reversed the decreases
  reversal of decrease in wall shear rate after reperfusion: reversed the decreases
Rat mesenteric venules
  RBC velocity: 2.64 ± 0.23 mm/sec
  Venular diameter: 29.0 ± 1.1 μm
  Wall Shear Rate: 457 ± 38 L/s
Mesenteric venules; 10 min and 30 min after reperfusion
  attenuation of albumin leakage: 60-71%
microvasculature
  capillary pressure: No significant changes
Mast cells
  degranulation of microvascular mast cells: significantly inhibited
[6]
  platelet-leukocyte aggregate formation: reduced
Intestinal mucosa; 6-hr hypothermic ischemia, 120 min reperfusion, FIG. 9
  mucosal permeability (51Cr-EDTA clearance): decreased
Intestinal mucosa; at 60 and 90 min, 0.5 mmol luminal perfusate
  51Cr-EDTA clearance: statistically significant decrease
Small intestine
  water absorption: significantly increased
leukocytes; 10 and 30 min reperfusion, FIG. 4B
  reduction of number of emigrated leukocytes: 68-75%

B1: catalase: catalase (protein, UniProt P04040 2-527, looked up)
Catalase: ADSRDPASDQMQHWKEQRAAQKADVLTTGAGNPVGDKLNVITVGPRGPLLVQDVVFTDEMAHFDRERIPERVVHAKGAGAFGYFEVTHDITKYSKAKVFEHIGKKTPIAVRFSTVAGESGSADTVRDPRGFAVKFYTEDGNWDLVGNNTPIFFIRDPILFPSFIHSQKRNPQTHLKDPDMVWDFWSLRPESLHQVSFLFSDRGIPDGHRHMNGYGSHTFKLVNANGEAVYCKFHYKTDQGIKNLSVEDAARLSQEDPDYGIRDLFNAIATGKYPSWTFYIQVMTFNQAETFPFNPFDLTKVWPHKDYPLIPVGKLVLNRNPVNYFAEVEQIAFDPSNMPPGIEASPDKMLQGRLFAYPDTHRHRLGPNYLHIPVNCPYRARVANYQRDGPMCMQDNQGGAPNYYPNSFGAPEQQPSALEHSIQYSGEVRRFNTANDDNVTQVRAFYVNVLNEEQRKRLCENIAGHLKDAQIFIQKKAVKNFTEVHPDYGSHIQALLDKYNAEKPKNAIHTFVQSGSHLAAREKANL
[5]
  HX/XO induced cytotoxicity with added enzyme: treated the cytotoxicity
